Values quoted from earlier work in US20220347313A1, “Combination Anti-CD30 ADC, Anti-PD-1 and Chemotherapeutic for Treatment of Hematopoietic Cancers” (SEAGEN, INC., priority 2019, published 2022).

System: CD28, ICOS, CTLA-4 and BTLA

In the case of nivolumab, the “binding specificity for PD-1 versus related CD28 family members” value is given as “binds specifically to PD-1 and not to related members of the CD28 family”.
